{
  "source": "patent US20110200626A1",
  "about": "“IQGAP3 EPITOPE PEPTIDES AND VACCINES CONTAINING THE SAME” (Oncotherapy Science, Inc., priority 2008, published 2011)",
  "key": {"[1]": {"test_system": "peptide-pulsed T2 cells", "assay": "IFN-gamma ELISA assay on CTL lines (HLA-A*0201)", "assay_type": "cell-based, human", "settings": "target cells pulsed with corresponding peptide vs without peptide"}, "[2]": {"test_system": "peptide-pulsed T2 cells", "assay": "IFN-gamma ELISPOT assay on CTLs induced with HLA-A*0201 restricted peptides", "assay_type": "cell-based, human", "settings": "against peptide-pulsed target cells compared with control without peptide, listed as IQGAP3-A02-10-1424"}},
  "note": "Ends that are not written are not given here.",
  "data": [
    {"substance": "SLTAhSLLPL (SLTAHSLLPL; not fully specified (residue 5); printed as SLTAhSLLPL) [SEQ ID NO: 141]", "values": [
      {"measurement": "IFN-gamma production of established CTL lines (ELISA)", "setting": "[1]", "value": "potent IFN-gamma production"},
      {"measurement": "IFN-gamma production of peptide-induced CTLs (ELISPOT)", "setting": "[2]", "value": "potent IFN-gamma production ability"}
    ]}
  ]
}
